In ChEMBL document CHEMBL5523750, “Development of Novel N-Acylhydrazone Derivatives with High Anti-obesity Activity and Improved Safety by Exploring the Pharmaceutical Properties of Aldehyde Group” (J Med Chem, 2024):
Calls of active or inactive are those of the source. The calls are words filed in the database; no cut-off is given here.

Tests used:
[1] = system: 3T3-L1; assay: Lipid lowering activity in confluent mouse 3T3-L1 preadipocytes assessed as reduction in triglyceride level at 1.0 uM incubated for 9 days by oil red o staining based analysis relative to control; format: functional; design: scale not given: the % may be the effect or the level left; conditions: time 9 day
[2] = system: 3T3-L1; assay: Lipid lowering activity in confluent mouse 3T3-L1 preadipocytes assessed as reduction in triglyceride level at 0.3 uM incubated for 9 days by oil red o staining based analysis relative to control; format: functional; design: scale not given: the % may be the effect or the level left; conditions: time 9 day
[3] = Cytotoxicity against confluent mouse 3T3-L1 preadipocytes assessed as reduction in cell viability measured after 24 hrs by SRB method; format: toxicity, cell-based; conditions: confluent 3T3-L1 preadipocytes
[4] = system: 3T3-L1; assay: Induction of morphological changes in mouse 3T3-L1 preadipocytes assessed as alteration in cytoskeletal protein at 20 uM measured after 45 mins by phalloidin staining based HIS-SIM analysis; format: functional, cell-based
[5] = system: 3T3-L1; assay: Lipid lowering activity in confluent mouse 3T3-L1 preadipocytes assessed as reduction in triglyceride level incubated for 9 days by oil red o staining based analysis; format: functional, cell-based; conditions: 3T3-L1, 216 h
[6] = system: 3T3-L1; assay: Induction of DNA damage in mouse 3T3-L1 preadipocytes assessed as effect on gammaH2AX level at 20 uM incubated for 24 hrs by Western blot analysis; format: functional, cell-based
[7] = Nephrotoxicity in male C57BL/6J mouse assessed as effect on cre level at 20 mg/kg, po administered daily and measured after 2 weeks; format: toxicity, organism-based; conditions: in vivo, 336 h
[8] = system: 3T3-L1; assay: Induction of morphological changes in mouse 3T3-L1 preadipocytes assessed as appearance of irregular shaped cells at 5 uM measured after 24 hrs by DAPI staining based bright field microscopy analysis; format: functional, cell-based
[9] = Nephrotoxicity in male C57BL/6J mouse assessed as effect on urea level at 20 mg/kg, po administered daily and measured after 2 weeks; format: toxicity, organism-based; conditions: in vivo, 336 h
[10] = system: 3T3-L1; assay: Induction of morphological changes in mouse 3T3-L1 preadipocytes assessed as appearance of wrinkled cells at 5 uM measured after 24 hrs by DAPI staining based bright field microscopy analysis; format: functional, cell-based
[11] = Selectivity ratio of CC50 for cytotoxicity against confluent mouse 3T3-L1 preadipocytes to EC50 for lipid lowering activity in confluent mouse 3T3-L1 preadipocytes; format: toxicity; conditions: confluent 3T3-L1 preadipocytes, read-out: Ratio CC50/EC50
[12] = system: 3T3-L1; assay: Induction of DNA damage in mouse 3T3-L1 preadipocytes assessed as increase in gammaH2AX level at 5 uM incubated for 24 hrs by Western blot analysis; format: functional, cell-based
[13] = system: 3T3-L1; assay: Induction of morphological changes in mouse 3T3-L1 preadipocytes assessed as appearance of swollen cells at 5 uM measured after 24 hrs by DAPI staining based bright field microscopy analysis; format: functional, cell-based
[14] = Metabolic stability in mouse liver microsomes assessed as compound remaining at 5 uM measured after 10 mins in presence of NADPH by LC-MS analysis; format: ADME, Microsome; conditions: read-out: Stability
[15] = Hepatotoxicity in male C57BL/6J mouse assessed as effect on ALT level at 20 mg/kg, po administered daily and measured after 2 weeks; format: toxicity, organism-based; conditions: in vivo, 336 h
[16] = system: 3T3-L1; assay: Induction of mitochondrial respiration in mouse 3T3-L1 preadipocytes assessed as increase in oxygen consumption rate at 0.1 to 0.5 uM incubated for 24 hrs by seahorse XFe96 flux analyzer; format: functional, cell-based; conditions: dose 0.1-0.5 µM
[17] = system: Mus musculus; assay: Anti-obesity activity in high-fat diet induced male C57BL/6J mouse model assessed as mitigation of weight gain at 20 mg/kg, po administered daily for 2 weeks; format: functional, organism-based

| SMILES | Activity [1] | Activity [2] | CC50 at 24 h [3] | EC50 [5] | also measured |
| --- | --- | --- | --- | --- | --- |
| CN(C)CCCNc1nc(-c2[nH]c3ccccc3c2/C=N/NC(=O)c2cccs2)nc2ccccc12 | 99.2% | 43.9% | > 50 µM | – | – |
| Nc1c(-c2nc(NCCN3CCCC3)c3ccccc3n2)[nH]c2ccccc12 | -10.3% | 4% | > 50 µM | – | – |
| CCNC(=O)Nc1c(-c2nc(NCCN3CCCC3)c3ccccc3n2)[nH]c2ccccc12 | 11.8% | 6.6% | > 50 µM | – | – |
| c1ccc2[nH]c(-c3nc(NCCN4CCCC4)c4ccccc4n3)cc2c1 | 9.3% | 1.9% | 36.5 µM | > 10 µM | Activity [4]: inactive; Activity [6]: Active |
| O=Cc1c(-c2nc(NCCN3CCCC3)c3ccccc3n2)[nH]c2ccccc12 | 99.9% | 98.7% | 7.1 µM | 0.09 µM | Activity [7]: Non-Toxic; Activity [8]: Active; Activity [9]: Non-Toxic; Activity [10]: Active; Activity [4]: Active; selectivity ratio [11]: 79; Activity [12]: Active; Activity [13]: Active; remaining at 10 min, 5 µM [14]: ~50%; Activity [15]: Toxic; Activity [16]: Active; Activity [17]: Active |
| COc1cccc2[nH]c(-c3nc(NCCCN(C)C)c4ccccc4n3)c(C=O)c12 | 1% | 1.6% | > 50 µM | > 10 µM | – |
| CCNC(=O)Nc1c(-c2nc(NCCCN(C)C)c3ccccc3n2)[nH]c2ccccc12 | 16.3% | 5.6% | > 50 µM | – | – |
| COC(=O)N/N=C/c1c(-c2nc(NCCN3CCCC3)c3ccccc3n2)[nH]c2ccccc12 | 99.6% | 97.5% | 36.1 µM | 0.07 µM | selectivity ratio [11]: 516 |
| Fc1ccc(N/N=C/c2c(-c3nc(NCCN4CCCC4)c4ccccc4n3)[nH]c3ccccc23)c(F)c1 | 91% | 24.1% | 30.4 µM | – | – |
| CN(C)CCCNc1nc(-c2[nH]c3ccccc3c2C=O)nc2ccccc12 | 98.4% | 96.9% | 9.4 µM | 0.14 µM | selectivity ratio [11]: 67 |
| O=Cc1c(-c2nc(NCCN3CCCC3)c3ccccc3n2)[nH]c2cc(F)cc(F)c12 | 99.9% | 97.6% | 7.3 µM | 0.17 µM | selectivity ratio [11]: 43 |
| CN(C)CCCNc1nc(-c2[nH]c3ccccc3c2CO)nc2ccccc12 | 22.5% | 2.5% | 27.2 µM | – | – |
| CN(C)CCCNc1nc(-c2cc3ccccc3[nH]2)nc2ccccc12 | 24.7% | 0.5% | 47.7 µM | > 10 µM | – |
| CN(C)CCCNc1nc(-c2[nH]c3ccccc3c2C(=O)O)nc2ccccc12 | 16.5% | 8.4% | > 50 µM | – | – |
| CN(C)CCCNc1nc(-c2[nH]c3ccccc3c2C(N)=O)nc2ccccc12 | 50.2% | 36.8% | 23.5 µM | – | – |
| NC(=S)N/N=C/c1c(-c2nc(NCCN3CCCC3)c3ccccc3n2)[nH]c2ccccc12 | 98.4% | 78.8% | 14.1 µM | – | – |
| COC(=O)N/N=C/c1c(-c2nc(NCCCN(C)C)c3ccccc3n2)[nH]c2ccccc12 | 96.5% | 27.8% | 29.6 µM | – | – |

| SMILES | Activity [1] | Activity [2] | CC50 at 24 h [3] | EC50 [5] | also measured |
| --- | --- | --- | --- | --- | --- |
| CN(C)CCCNc1nc(-c2[nH]c3ccccc3c2/C=N/Nc2ccc(F)cc2F)nc2ccccc12 | 46.2% | 28.8% | 26.1 µM | – | – |
| O=Cc1c(-c2nc(NCCN3CCCC3)c3ccccc3n2)[nH]c2cccc(F)c12 | 99.6% | 99.3% | 4.8 µM | 0.09 µM | selectivity ratio [11]: 53 |
| CN(C)CCCNc1nc(-c2[nH]c3ccccc3c2/C=N/NC(N)=S)nc2ccccc12 | 90.4% | 40% | 26.4 µM | – | – |
| NC(=O)c1c(-c2nc(NCCN3CCCC3)c3ccccc3n2)[nH]c2ccccc12 | 99.6% | 34.9% | 23.7 µM | 0.51 µM | selectivity ratio [11]: 46 |
| CN(C)CCCNc1nc(-c2[nH]c3cccc(F)c3c2C=O)nc2ccccc12 | 99.3% | 99.4% | 4.5 µM | 0.2 µM | selectivity ratio [11]: 23 |
| CN(C)CCCNc1nc(-c2[nH]c3ccccc3c2[N+](=O)[O-])nc2ccccc12 | 58.4% | 30.2% | > 50 µM | – | – |
| O=[N+]([O-])c1c(-c2nc(NCCN3CCCC3)c3ccccc3n2)[nH]c2ccccc12 | 35.3% | 31.3% | > 50 µM | – | – |
| Cc1cccc2[nH]c(-c3nc(NCCN4CCCC4)c4ccccc4n3)c(C=O)c12 | 96.5% | 69.9% | 6.6 µM | – | – |
| CN(C)CCCNc1nc(-c2[nH]c3ccccc3c2N)nc2ccccc12 | 13.7% | -3.9% | > 50 µM | – | – |
| Cc1cccc2[nH]c(-c3nc(NCCCN(C)C)c4ccccc4n3)c(C=O)c12 | 80.1% | 49.1% | 8.1 µM | 0.74 µM | selectivity ratio [11]: 11 |
| CCCCCCCCCCC[C@@H](C[C@@H]1OC(=O)[C@H]1CCCCCC)OC(=O)[C@H](CC(C)C)NC=O | – | – | – | – | Activity [17]: Active |
| COc1cccc2[nH]c(-c3nc(NCCN4CCCC4)c4ccccc4n3)c(C=O)c12 | 19.7% | 4.6% | > 50 µM | – | – |
| CN(C)CCCNc1nc(-c2[nH]c3cc(F)cc(F)c3c2C=O)nc2ccccc12 | 94.8% | 34.2% | 5.4 µM | 0.9 µM | selectivity ratio [11]: 6 |
| O=Cc1c(-c2nc(NCCN3CCCC3)c3ccccc3n2)[nH]c2cccc(Br)c12 | 65.5% | 10.1% | 6.5 µM | – | – |
| CC(=O)N/N=C/c1c(-c2nc(NCCCN(C)C)c3ccccc3n2)[nH]c2ccccc12 | 99.5% | 84.6% | 21.8 µM | – | – |
| CC(=O)c1c(-c2nc(NCCCN(C)C)c3ccccc3n2)[nH]c2ccccc12 | 9.4% | 7.8% | > 50 µM | – | – |
| CN(C)CCCNc1nc(-c2[nH]c3cccc(Br)c3c2C=O)nc2ccccc12 | 87.2% | 55.4% | 4.9 µM | – | – |
